Source: publication PMC5584945, “Evaluation of robenidine analog NCL195 as a novel broad-spectrum antibacterial agent” (PLoS ONE, 2017)
Read-outs that look alike come from different tables or passages of the source.

Experiments:
MDBK = assay: In vitro cytotoxicity, WST-1; format: cell-based, bovine; details: Bos taurus, 24 h exposure, read-out: IC50 values ± SEM
Source text: (§1) In order to ensure minimal off target mammalian cell cytotoxicity, we assayed NCL812, NCL195 and NCL219 for in vitro cytotoxicity using a panel of adherent mammalian cell lines: Caco-2 (human colorectal adenocarcinoma cell line), HEL 299 (non-cancerous human lung fibroblast cell line), Hep G2 (human hepatocellular carcinoma cell line), MDBK (normal bovine kidney cell line) and MCF7 (human mammary gland adenocarcinoma cell line). Cell lines were maintained in Dulbecco’s Modified Eagle’s Medium (DMEM; […] After 24 h incubation, media was removed, washed once with medium without antibiotics and fresh medium supplemented with 10% (vol/vol) FBS was added. […] Following exposure for 24 h, WST-1 reagent was added to each well at a final concentration of 10%. […] The IC50 value for each compound against each cell line was determined via non-linear regression (three parameters) using GraphPad Prism v6 software. The robustness of assays was confirmed with selected cell lines (Hep G2 and MDBK) seeded onto a 96–well Microwell Nunclon Delta Surface plate (Thermo Scientific Nunc; Cat No: 136101) at 5 × 10^4 cells per well.

Caco-2 = assay: In vitro cytotoxicity, WST-1; format: cell-based; details: Homo sapiens, 24 h exposure, read-out: IC50 values ± SEM
Source text: as §1

Hep G2 [1] = assay: In vitro cytotoxicity, WST-1; format: cell-based; details: Homo sapiens, HepG2; 24 h exposure; read-out: IC50 values ± SEM
Source text: as §1

MCF7 = assay: In vitro cytotoxicity, WST-1; format: cell-based; details: Homo sapiens, 24 h exposure, read-out: IC50 values ± SEM
Source text: as §1

HEL 299 = assay: In vitro cytotoxicity, WST-1; format: cell-based; details: Homo sapiens, 24 h exposure, read-out: IC50 values ± SEM
Source text: as §1

Hep G2 [2] = assay: Real-time cell viability, RealTime-Glo MT; format: cell-based, human; details: 2 or 8 μg/ml, up to 20 h post-treatment
S. pneumoniae = assay: MIC, broth micro-dilution (CLSI); format: cell-based, Streptococcus pneumoniae; details: for MIC / MIC50 / MIC90: Streptococcus pneumoniae
S. pneumoniae D39 = assay: Minimum bactericidal concentration (MBC); format: cell-based; details: Streptococcus pneumoniae
[3] = Kinetic solubility by nephelometry; format: physicochemical; details: kinetic from dmso stock
S. aureus = assay: MIC, broth micro-dilution (CLSI); format: cell-based, Staphylococcus aureus; details: for MIC / MIC50 / MIC90: Staphylococcus aureus
[4] = S2 Table isolates, absence of FBS

## Cl.N=C(NN=Cc1ccc(Cl)cc1)NN=Cc1ccc(Cl)cc1 [NCL812, 2,2'-bis[(4-chlorophenyl)methylene] carbonimidic dihydrazide hydrochloride]
MDBK
  IC50: 5.9 ± 0.1 µg/mL
Caco-2
  IC50: 8.2 ± 0.1 µg/mL
Hep G2 [1]
  IC50: 9.4 ± 0.1 µg/mL
MCF7
  IC50: 12 ± 0.2 µg/mL
HEL 299
  IC50: 4.6 ± 0.1 µg/mL
Hep G2 [2]
  Effect on cell viability (real-time): affected viability at 8 μg/ml
S. pneumoniae; 21 isolates
  MIC range: 2 to 8 µg/mL
S. pneumoniae; S1 Table isolates, 5% FBS + 3% washed RBC
  MIC range: 4 to 8 µg/mL
S. pneumoniae; S1 Table isolates, 10% FBS + 3% washed RBC
  MIC range: 2 to 8 µg/mL
S. pneumoniae; A66.1 (serotype 3), 5% FBS
  MIC: 4 µg/mL
S. pneumoniae; A66.1 (serotype 3), 10% FBS
  MIC: 4 µg/mL
S. pneumoniae; ATCC6303, ATCC 6303 (serotype 3), 5% FBS + 3% washed RBC
  MIC: 4 µg/mL
S. pneumoniae; ATCC6303, ATCC 6303 (serotype 3), 10% FBS + 3% washed RBC
  MIC: 4 µg/mL
S. pneumoniae; D39/D39LUX (serotype 2), 5% FBS
  MIC: 8 µg/mL
S. pneumoniae; D39/D39LUX (serotype 2), 10% FBS
  MIC: 8 µg/mL
S. pneumoniae; EF3030 (serotype 19F), 5% FBS
  MIC: 8 µg/mL
S. pneumoniae; EF3030 (serotype 19F), 10% FBS
  MIC: 8 µg/mL
S. pneumoniae; L82016 (serotype 6B), 5% FBS
  MIC: 4 µg/mL
S. pneumoniae; L82016 (serotype 6B), 10% FBS
  MIC: 4 µg/mL
S. pneumoniae; P9 (serotype 6A), 5% FBS
  MIC: 4 µg/mL
S. pneumoniae; P9 (serotype 6A), 10% FBS
  MIC: 4 µg/mL
S. pneumoniae; P21 (serotype 3), 5% FBS
  MIC: 4 µg/mL
S. pneumoniae; P21 (serotype 3), 10% FBS
  MIC: 4 µg/mL
S. pneumoniae; S1 Table isolates, 5% FBS
  MIC50: 4 µg/mL
  MIC90: 8 µg/mL
S. pneumoniae; S1 Table isolates, 10% FBS
  MIC50: 4 µg/mL
  MIC90: 8 µg/mL
S. pneumoniae; TIGR4 (serotype 4), 5% FBS
  MIC: 4 µg/mL
S. pneumoniae; TIGR4 (serotype 4), 10% FBS
  MIC: 4 µg/mL
S. pneumoniae; WCH16 (serotype 6A), 5% FBS
  MIC: 4 µg/mL
S. pneumoniae; WCH16 (serotype 6A), 10% FBS
  MIC: 8 µg/mL
S. pneumoniae; WCH43 (serotype 4), 5% FBS
  MIC: 4 µg/mL
S. pneumoniae; WCH43 (serotype 4), 10% FBS
  MIC: 4 µg/mL
S. pneumoniae; WCH46 (serotype 4), 5% FBS
  MIC: 4 µg/mL
S. pneumoniae; WCH46 (serotype 4), 10% FBS
  MIC: 4 µg/mL
S. pneumoniae; WCH57 (serotype 8), 5% FBS
  MIC: 4 µg/mL
S. pneumoniae; WCH57 (serotype 8), 10% FBS
  MIC: 4 µg/mL
S. pneumoniae; WCH77 (serotype 5), 5% FBS
  MIC: 4 µg/mL
S. pneumoniae; WCH77 (serotype 5), 10% FBS
  MIC: 2 µg/mL
S. pneumoniae; WCH86 (serotype 4), 5% FBS
  MIC: 4 µg/mL
S. pneumoniae; WCH86 (serotype 4), 10% FBS
  MIC: 8 µg/mL
S. pneumoniae; WCH89 (serotype 7), 5% FBS
  MIC: 4 µg/mL
S. pneumoniae; WCH89 (serotype 7), 10% FBS
  MIC: 8 µg/mL
S. pneumoniae; WCH92 (serotype 4), 5% FBS
  MIC: 4 µg/mL
S. pneumoniae; WCH92 (serotype 4), 10% FBS
  MIC: 4 µg/mL
S. pneumoniae; WCH137 (serotype 6A), 5% FBS
  MIC: 4 µg/mL
S. pneumoniae; WCH137 (serotype 6A), 10% FBS
  MIC: 4 µg/mL
S. pneumoniae; WCH158 (serotype 19F), 5% FBS
  MIC: 4 µg/mL
S. pneumoniae; WCH158 (serotype 19F), 10% FBS
  MIC: 4 µg/mL
S. pneumoniae; WCH184 (serotype 19F), 5% FBS
  MIC: 4 µg/mL
S. pneumoniae; WCH184 (serotype 19F), 10% FBS
  MIC: 4 µg/mL
S. pneumoniae; WCH211 (serotype 11), 5% FBS
  MIC: 4 µg/mL
S. pneumoniae; WCH211 (serotype 11), 10% FBS
  MIC: 4 µg/mL
S. pneumoniae; WU2 (serotype 3), 5% FBS
  MIC: 8 µg/mL
S. pneumoniae; WU2 (serotype 3), 10% FBS
  MIC: 8 µg/mL
S. pneumoniae D39
  MBC: 8 µg/mL
[3]; pH 2.0
  solubility: 6.3 to 12.5 µg/mL
[3]; pH 6.5
  solubility: < 1.6 µg/mL
S. aureus; 10% FBS versus no FBS
  Fold increase of MIC range in the presence of 10% FBS: 4-8 fold
S. aureus; 23 isolates
  MIC range: 2 to 8 µg/mL
S. aureus; S2 Table isolates, 10% FBS
  MIC range: 32 µg/mL
  MIC50: 32 µg/mL
  MIC90: 32 µg/mL
S. aureus; [4]
  MIC range: 2 to 8 µg/mL
  MIC50: 2 µg/mL
  MIC90: 4 µg/mL
S. aureus; ATCC 12600 / MSSA, ATCC12600 [Xen29] (MSSA), 10% FBS
  MIC: 32 µg/mL
S. aureus; ATCC 12600 / MSSA, ATCC12600 [Xen29] (MSSA), absence of FBS
  MIC: 4 µg/mL
S. aureus; ATCC 29213 / MSSA, ATCC29213 MSSA (ST5), 10% FBS, read-out: MIC
  MIC: 32 µg/mL
S. aureus; ATCC 29213 / MSSA, ATCC29213 MSSA (ST5), absence of FBS, read-out: MIC
  MIC: 4 µg/mL
S. aureus; ATCC 49775 / MSSA, ATCC 49775 (MSSA), 10% FBS, read-out: MIC
  MIC: 32 µg/mL
S. aureus; ATCC 49775 / MSSA, ATCC 49775 (MSSA), absence of FBS, read-out: MIC
  MIC: 2 µg/mL
S. aureus; IRISH 1 – HA-EMRSA (ST8), 10% FBS, read-out: MIC
  MIC: 32 µg/mL
S. aureus; IRISH 1 – HA-EMRSA (ST8), absence of FBS, read-out: MIC
  MIC: 2 µg/mL
S. aureus; IRISH 2 – HA-EMRSA (ST8), 10% FBS, read-out: MIC
  MIC: 32 µg/mL
S. aureus; IRISH 2 – HA-EMRSA (ST8), absence of FBS, read-out: MIC
  MIC: 2 µg/mL
S. aureus; MRSA / USA300, USA 300 - MRSA (ST8), 10% FBS, read-out: MIC
  MIC: 32 µg/mL
S. aureus; MRSA / USA300, USA 300 - MRSA (ST8), absence of FBS, read-out: MIC
  MIC: 2 µg/mL
S. aureus; MRSA, AUS2-MRSA (ST239), 10% FBS, read-out: MIC
  MIC: 32 µg/mL
S. aureus; MRSA, AUS2-MRSA (ST239), absence of FBS, read-out: MIC
  MIC: 2 µg/mL
S. aureus; MRSA, AUS3-MRSA (ST239), 10% FBS, read-out: MIC
  MIC: 32 µg/mL
S. aureus; MRSA, AUS3-MRSA (ST239), absence of FBS, read-out: MIC
  MIC: 2 µg/mL
S. aureus; MRSA, BENGAL BAY PVL+ – CA-MRSA (ST772), 10% FBS, read-out: MIC
  MIC: 32 µg/mL
S. aureus; MRSA, BENGAL BAY PVL+ – CA-MRSA (ST772), absence of FBS, read-out: MIC
  MIC: 2 µg/mL
S. aureus; MRSA, Classic–HA-MRSA (ST250), 10% FBS, read-out: MIC
  MIC: 32 µg/mL
S. aureus; MRSA, Classic–HA-MRSA (ST250), absence of FBS, read-out: MIC
  MIC: 2 µg/mL
S. aureus; MRSA, NY JAPAN – HA MRSA (ST5), 10% FBS, read-out: MIC
  MIC: 32 µg/mL
S. aureus; MRSA, NY JAPAN – HA MRSA (ST5), absence of FBS, read-out: MIC
  MIC: 2 µg/mL
S. aureus; MRSA, QLD PVL+ –CA-MRSA (ST93), 10% FBS, read-out: MIC
  MIC: 32 µg/mL
S. aureus; MRSA, QLD PVL+ –CA-MRSA (ST93), absence of FBS, read-out: MIC
  MIC: 2 µg/mL
S. aureus; MRSA, ST398–CA-MRSA-V (ST398), 10% FBS, read-out: MIC
  MIC: 32 µg/mL
S. aureus; MRSA, ST398–CA-MRSA-V (ST398), absence of FBS, read-out: MIC
  MIC: 2 µg/mL
S. aureus; MRSA, WA2–CA-MRSA (ST78), absence of FBS
  MIC: 4 µg/mL
S. aureus; MRSA, WA84–CA-MRSA (ST45), absence of FBS
  MIC: 4 µg/mL
S. aureus; MRSA, WSPP – PVL neg CA MRSA (ST30), absence of FBS, read-out: MIC
  MIC: 2 µg/mL
S. aureus; TAIWAN PVL+ – CA-cMRSA (ST59), 10% FBS, read-out: MIC
  MIC: 32 µg/mL
S. aureus; TAIWAN PVL+ – CA-cMRSA (ST59), absence of FBS, read-out: MIC
  MIC: 2 µg/mL
S. aureus; UK 15 PVL+ – HA-EMRSA (ST22), 10% FBS, read-out: MIC
  MIC: 32 µg/mL
S. aureus; UK 15 PVL+ – HA-EMRSA (ST22), absence of FBS, read-out: MIC
  MIC: 4 µg/mL
S. aureus; UK 15 – HA-EMRSA (ST22), 10% FBS, read-out: MIC
  MIC: 32 µg/mL
S. aureus; UK 15 – HA-EMRSA (ST22), absence of FBS, read-out: MIC
  MIC: 4 µg/mL
S. aureus; UK 16 – HA- EMRSA (ST36), 10% FBS, read-out: MIC
  MIC: 32 µg/mL
S. aureus; UK 16 – HA- EMRSA (ST36), absence of FBS, read-out: MIC
  MIC: 4 µg/mL
S. aureus; UK 17 – HA-EMRSA (ST247), 10% FBS, read-out: MIC
  MIC: 32 µg/mL
S. aureus; UK 17 – HA-EMRSA (ST247), absence of FBS, read-out: MIC
  MIC: 2 µg/mL
